Test results from ChEMBL document CHEMBL3400045, “Synthesis and ABCG2 inhibitory evaluation of 5-N-acetylardeemin derivatives” (Bioorg Med Chem, 2015).

How the values were obtained:
Format in all cases: cell-based
ABCG2 [1] = target: T1, ABCG2 (Homo sapiens, UniProt Q9UNQ0); assay: Inhibition of ABCG2 (unknown origin) transfected in Flp-In-293 cells assessed as inhibition of Hoechst 33342 efflux measured as inhibition ratio after 90 mins by flow cytometry; set-up: concentration or dose not given beside the values; settings: Flp-In-293 cells transfected with ABCG2, probe Hoechst 33342
T1 sequence (Q9UNQ0 whole entry): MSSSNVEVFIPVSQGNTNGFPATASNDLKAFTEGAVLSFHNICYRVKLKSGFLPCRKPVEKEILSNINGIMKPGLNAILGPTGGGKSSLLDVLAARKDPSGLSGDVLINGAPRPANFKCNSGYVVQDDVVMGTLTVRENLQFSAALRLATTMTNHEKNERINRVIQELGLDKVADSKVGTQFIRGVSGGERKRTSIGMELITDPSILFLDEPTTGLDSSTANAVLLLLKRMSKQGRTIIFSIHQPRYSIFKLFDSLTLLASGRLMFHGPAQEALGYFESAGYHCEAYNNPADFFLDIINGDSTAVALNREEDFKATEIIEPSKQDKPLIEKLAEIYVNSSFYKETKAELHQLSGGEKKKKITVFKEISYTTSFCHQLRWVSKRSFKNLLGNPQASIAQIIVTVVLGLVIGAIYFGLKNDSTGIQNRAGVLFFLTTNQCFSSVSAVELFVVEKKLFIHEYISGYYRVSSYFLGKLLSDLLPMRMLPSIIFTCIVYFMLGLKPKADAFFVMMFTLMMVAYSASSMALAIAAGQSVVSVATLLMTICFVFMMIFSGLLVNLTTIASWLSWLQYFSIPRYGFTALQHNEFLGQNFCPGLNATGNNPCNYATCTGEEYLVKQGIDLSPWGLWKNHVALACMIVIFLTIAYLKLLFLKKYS

[2] = target: T2, Broad substrate specificity ATP-binding cassette transporter ABCG2 (Homo sapiens, UniProt Q9UNQ0); assay: (§1) Inhibition of ABCG2 (unknown origin) transfected in Flp-In-293 cells assessed as inhibition of Hoechst 33342 efflux after 90 mins by flow cytometry; settings: 1.5 h
T2 sequence (Q9UNQ0 whole entry): T1 sequence (Q9UNQ0 whole entry)

ABCG2 [3] = target: T1, ABCG2; assay: as §1; settings: Flp-In-293 cells transfected with ABCG2, probe Hoechst 33342

Compound | inhibition at 1.5 h (ABCG2 [1]) [%] | inhibition (INH) [2] | inhibition at 1.5 h (ABCG2 [3]) [%]
C=CC(C)(C)[C@@]12C[C@H]3c4nc5ccccc5c(=O)n4[C@H](C)C(=O)N3[C@@H]1N(C(C)=O)c1ccccc12 | 21.8 |  | 
C=CC(C)(C)[C@@]12C[C@H]3c4nc5ccc(F)cc5c(=O)n4[C@H](C)C(=O)N3[C@@H]1N(C(C)=O)c1ccccc12 | 34.6 | Active | 
C=CC(C)(C)[C@@]12C[C@H]3c4nc5ccc(Cl)cc5c(=O)n4[C@H](C)C(=O)N3[C@@H]1N(C(C)=O)c1ccccc12 | 66.8 | Active | 
C=CC(C)(C)[C@@]12C[C@H]3c4nc5ccc(Br)cc5c(=O)n4[C@H](C)C(=O)N3[C@@H]1N(C(C)=O)c1ccccc12 | 64.5 | Active | 
C=CC(C)(C)[C@@]12C[C@H]3c4nc5cc(Br)ccc5c(=O)n4[C@H](C)C(=O)N3[C@@H]1N(C(C)=O)c1ccccc12 |  | Active | 
C=CC(C)(C)[C@@]12C[C@H]3c4nc5ccc(I)cc5c(=O)n4[C@H](C)C(=O)N3[C@@H]1N(C(C)=O)c1ccccc12 | 35.4 | Active | 
C=CC(C)(C)[C@@]12C[C@H]3c4nc5ccc(OC)cc5c(=O)n4[C@H](C)C(=O)N3[C@@H]1N(C(C)=O)c1ccccc12 |  | Active | 
C=CC(C)(C)[C@@]12C[C@H]3c4nc5ccc(C#N)cc5c(=O)n4[C@H](C)C(=O)N3[C@@H]1N(C(C)=O)c1ccccc12 |  | Active | 
C=CC(C)(C)[C@@]12C[C@H]3c4nc5ccc(-c6ccccc6)cc5c(=O)n4[C@H](C)C(=O)N3[C@@H]1N(C(C)=O)c1ccccc12 |  | Active | 
C=CC(C)(C)[C@@]12C[C@H]3c4nc5ccccc5c(=O)n4[C@H](C)C(=O)N3[C@@H]1N(C(C)=O)c1ccc(Br)cc12 |  | Active | 
C=CC(C)(C)[C@@]12C[C@H]3c4nc5ccccc5c(=O)n4[C@H](C)C(=O)N3[C@@H]1N(C(C)=O)c1ccc(C3CCCCC3)cc12 |  | Active | 
C=CC(C)(C)[C@@]12C[C@H]3c4nc5ccccc5c(=O)n4[C@H](C)C(=O)N3[C@@H]1N(C(C)=O)c1ccc(-c3ccccc3)cc12 |  | Active | 
C=CC(C)(C)[C@@]12C[C@H]3c4nc5ccccc5c(=O)n4[C@H](C)C(=O)N3[C@@H]1N(C(C)=O)c1ccc(-c3ccc(C)cc3)cc12 |  | Active | 
C=CC(C)(C)[C@@]12C[C@H]3c4nc5ccccc5c(=O)n4[C@H](C)C(=O)N3[C@@H]1N(C(C)=O)c1ccc(-c3ccc(OC)cc3)cc12 |  | Active | 
C=CC(C)(C)[C@@]12C[C@H]3c4nc5ccccc5c(=O)n4[C@H](C)C(=O)N3[C@@H]1N(C(C)=O)c1ccc(-c3ccc(C#N)cc3)cc12 |  | Active | 
C=CC(C)(C)[C@@]12C[C@H]3c4nc5ccccc5c(=O)n4[C@H](C)C(=O)N3[C@@H]1N(C(C)=O)c1ccc(-c3ccc(-c4ccccc4)cc3)cc12 |  | Active | 
C=CC(C)(C)[C@]12C[C@@H](C(=O)Nc3ccccc3C(=O)OC)N(C(=O)[C@@H](C)NC(=O)OC(C)(C)C)[C@H]1N(C(C)=O)c1ccccc12 |  |  | 27.5
